Laboratory results published in patent US20100041089A1, “IMPROVED METHOD FOR DETECTING CHEMICAL […]” (priority 2006, published 2010).

Tested on: yeast genes (expressed mRNA)
Test: DNA chip measurement of expressed mRNA of yeast genes after culture with a toxic chemical substance
Type: cell-based, Saccharomyces cerevisiae S288C
Conditions: for level of expressed mRNA in the presence of chemical substance / level in the absence of chemical substance: cultured two hours with the chemical substance; for The level of expressed mRNA in the presence of chemical substance/The level of expressed mRNA in the absence of chemical substance: cultured two hours with substance
Procedure: Yeast (Saccharomyces cerevisiae S288C (a SUC2mal mel gap2 CUP1)) were cultured at 25° C. on YPD medium (yeast extract 1%, polypeptone 2%, glucose 2%). One of toxic chemical substances was added to the cell at logarithmic growth phase, and the cell was further cultured for two hours. Cell was cultured without any chemical substance in the same condition, and was used as a control. Concentrations of the chemical substances were defined to inhibit the growth of the yeast but not lead to death.
After the completion of cultivation, the culture was centrifuged to collect the cells. To the cells, sodium acetate buffer (50 mM sodium acetate, 10 mM EDTA, 1% SDS) was added, and the mixture was shaken at 65° C. for five minutes, followed by returning to room temperature, and obtaining the supernatant, which procedure was repeated two times. To the supernatant, ½ amount of a solution of phenol/chloroform (1:1) was added, and the mixture was centrifuged to give a supernatant, an equal amount of chloroform was added, and the mixture was centrifuged to give a supernatant. To the supernatant, an equal amount of isopropanol containing 0.3 M sodium acetate was added, and the mixture was allowed to stand at room temperature for 30 minutes, after which the mixture was centrifuged to give sediment of the whole RNAs. Seventy % ethanol was added to the sediment, and the mixture was again centrifuged to give sediment, which was then dried and dissolved in water. mRNA was isolated from the whole RNAs as followings. In view of the fact that a poly A chain is attached to the 3′ terminus of mRNA, a polynucleotide having a poly T structure which was immobilized on the surface of latex beads was used to trap the mRNA, and then the mRNA was washed and eluted with spine column (Oligotex-dT30<Super>mRNA Purification Kit, Takara). Reverse transcription of the mRNA was conducted with a reverse transcriptase (Super Script II Reverse Transcriptase; catalogue No. 18064-014, GibcoBRL) using fluorescence-labeled nucleotides to give cDNAs that were introduced with Cy3-dUTP or Cy5-dUTP during the reverse transcription.
The labeled cDNAs were dissolved in TE buffer (10 mM Tris-HCl/1 mM EDTA, pH 8.0), and the solution was dropped on the DNA chip containing the whole genes of yeast (DNA Chip Research Inc. Japan) so that the cDNAs were hybridized on the DNA chip at 65° C. for over 12 hours. The fluoresces intensity of the DNA chip was read with a scanner, and the ratio relative to the fluorescence intensity resulting from the absence of chemical substance was estimated as the following, which is shown in Tables 1 to 9.
In the Tables, “Intensity” indicated in the rightmost column is a value of the level of expressed mRNA of each gene in control cells as divided by the average level of the expressions of the whole genes. A gene of which mRNA level is lower in control, and is higher in cases of addition of chemical substance, is especially useful in the detection of toxic substances.
Here, when a ratio of an amount of mRNA expressed in the presence of the chemical substance to an amount of mRNA expressed in the absence of the chemical substance is two or more, then it is considered significant.

## CCCCCCCCCCCCc1ccc(S(=O)(=O)[O-])cc1.[Na+] [(17), Sodium dodecylbenzosulfonate]
Yeast gene YJL097W
  level of expressed mRNA in the presence of chemical substance / level in the absence of chemical substance: 1.2
Yeast gene YJL151C
  The level of expressed mRNA in the presence of chemical substance/The level of expressed mRNA in the absence of chemical substance: 3.5
Yeast gene YJL152W
  The level of expressed mRNA in the presence of chemical substance/The level of expressed mRNA in the absence of chemical substance: 2.5
Yeast gene YJL161W
  The level of expressed mRNA in the presence of chemical substance/The level of expressed mRNA in the absence of chemical substance: 1.9
Yeast gene YJL171C
  The level of expressed mRNA in the presence of chemical substance/The level of expressed mRNA in the absence of chemical substance: 3.6
Yeast gene YJR008W
  The level of expressed mRNA in the presence of chemical substance/The level of expressed mRNA in the absence of chemical substance: 1.5
Yeast gene YJR030C
  level of expressed mRNA in the presence of chemical substance / level in the absence of chemical substance: 0.7
Yeast gene YJR054W
  The level of expressed mRNA in the presence of chemical substance/The level of expressed mRNA in the absence of chemical substance: 0.9
Yeast gene YKL051W
  level of expressed mRNA in the presence of chemical substance / level in the absence of chemical substance: 1.5
Yeast gene YKL071W
  The level of expressed mRNA in the presence of chemical substance/The level of expressed mRNA in the absence of chemical substance: 1.0
Yeast gene YKL086W
  The level of expressed mRNA in the presence of chemical substance/The level of expressed mRNA in the absence of chemical substance: 0.9
Yeast gene YKL097C
  level of expressed mRNA in the presence of chemical substance / level in the absence of chemical substance: 1.1
Yeast gene YKL100C
  level of expressed mRNA in the presence of chemical substance / level in the absence of chemical substance: 0.7
Yeast gene YKL151C
  The level of expressed mRNA in the presence of chemical substance/The level of expressed mRNA in the absence of chemical substance: 1.4
Yeast gene YKL153W
  The level of expressed mRNA in the presence of chemical substance/The level of expressed mRNA in the absence of chemical substance: 0.9
Yeast gene YKL195W
  The level of expressed mRNA in the presence of chemical substance/The level of expressed mRNA in the absence of chemical substance: 1.4
Yeast gene YKR040C
  level of expressed mRNA in the presence of chemical substance / level in the absence of chemical substance: 0.7
Yeast gene YKR091W
  The level of expressed mRNA in the presence of chemical substance/The level of expressed mRNA in the absence of chemical substance: 1.6
Yeast gene YLR054C
  The level of expressed mRNA in the presence of chemical substance/The level of expressed mRNA in the absence of chemical substance: 1.6
Yeast gene YLR149C
  The level of expressed mRNA in the presence of chemical substance/The level of expressed mRNA in the absence of chemical substance: 1.3
Yeast gene YLR152C
  The level of expressed mRNA in the presence of chemical substance/The level of expressed mRNA in the absence of chemical substance: 1.5
Yeast gene YLR194C
  The level of expressed mRNA in the presence of chemical substance/The level of expressed mRNA in the absence of chemical substance: 1.0
Yeast gene YLR226W
  level of expressed mRNA in the presence of chemical substance / level in the absence of chemical substance: 1.1
Yeast gene YLR324W
  The level of expressed mRNA in the presence of chemical substance/The level of expressed mRNA in the absence of chemical substance: 1.2
Yeast gene YLR338W
  level of expressed mRNA in the presence of chemical substance / level in the absence of chemical substance: 0.8
Yeast gene YLR350W
  The level of expressed mRNA in the presence of chemical substance/The level of expressed mRNA in the absence of chemical substance: 1.6
Yeast gene YLR387C
  The level of expressed mRNA in the presence of chemical substance/The level of expressed mRNA in the absence of chemical substance: 1.0
Yeast gene YLR392C
  level of expressed mRNA in the presence of chemical substance / level in the absence of chemical substance: 0.8
Yeast gene YLR415C
  level of expressed mRNA in the presence of chemical substance / level in the absence of chemical substance: 0.8
Yeast gene YLR427W
  level of expressed mRNA in the presence of chemical substance / level in the absence of chemical substance: 1.0
Yeast gene YLR460C
  The level of expressed mRNA in the presence of chemical substance/The level of expressed mRNA in the absence of chemical substance: 1.0
Yeast gene YML013W
  level of expressed mRNA in the presence of chemical substance / level in the absence of chemical substance: 1.1
Yeast gene YML029W
  level of expressed mRNA in the presence of chemical substance / level in the absence of chemical substance: 1.2
Yeast gene YML041C
  level of expressed mRNA in the presence of chemical substance / level in the absence of chemical substance: 1.3
Yeast gene YML079W
  level of expressed mRNA in the presence of chemical substance / level in the absence of chemical substance: 1.4
Yeast gene YML117W
  The level of expressed mRNA in the presence of chemical substance/The level of expressed mRNA in the absence of chemical substance: 1.1
Yeast gene YMR009W
  The level of expressed mRNA in the presence of chemical substance/The level of expressed mRNA in the absence of chemical substance: 2.7
Yeast gene YMR067C
  The level of expressed mRNA in the presence of chemical substance/The level of expressed mRNA in the absence of chemical substance: 1.0
Yeast gene YMR068W
  level of expressed mRNA in the presence of chemical substance / level in the absence of chemical substance: 1.3
Yeast gene YMR071C
  level of expressed mRNA in the presence of chemical substance / level in the absence of chemical substance: 1.2
Yeast gene YMR090W
  The level of expressed mRNA in the presence of chemical substance/The level of expressed mRNA in the absence of chemical substance: 1.8
Yeast gene YMR095C
  The level of expressed mRNA in the presence of chemical substance/The level of expressed mRNA in the absence of chemical substance: 1.0
Yeast gene YMR097C
  The level of expressed mRNA in the presence of chemical substance/The level of expressed mRNA in the absence of chemical substance: 1.4
Yeast gene YMR102C
  The level of expressed mRNA in the presence of chemical substance/The level of expressed mRNA in the absence of chemical substance: 2.4
Yeast gene YMR107W
  The level of expressed mRNA in the presence of chemical substance/The level of expressed mRNA in the absence of chemical substance: 1.3
Yeast gene YMR160W
  level of expressed mRNA in the presence of chemical substance / level in the absence of chemical substance: 0.9
Yeast gene YMR180C
  The level of expressed mRNA in the presence of chemical substance/The level of expressed mRNA in the absence of chemical substance: 1.4
Yeast gene YMR184W
  The level of expressed mRNA in the presence of chemical substance/The level of expressed mRNA in the absence of chemical substance: 1.4
Yeast gene YMR191W
  The level of expressed mRNA in the presence of chemical substance/The level of expressed mRNA in the absence of chemical substance: 1.2
Yeast gene YMR295C
  The level of expressed mRNA in the presence of chemical substance/The level of expressed mRNA in the absence of chemical substance: 2.1
Yeast gene YMR316W
  The level of expressed mRNA in the presence of chemical substance/The level of expressed mRNA in the absence of chemical substance: 6.9
Yeast gene YNL026W
  level of expressed mRNA in the presence of chemical substance / level in the absence of chemical substance: 1.0
Yeast gene YNL044W
  The level of expressed mRNA in the presence of chemical substance/The level of expressed mRNA in the absence of chemical substance: 3.1
